Assay results: PubChem BioAssay (NCI)
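Cells were grown in 96-well plates and exposed to each compound for 48 hours at five concentrations; endpoints were interpolated linearly between bracketing concentrations, or set to the highest concentration if not reached. GI50 is the concentration that inhibits growth by half. At the TGI there is no net growth.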

Experiments:
Assay in all cases: inhibition of tumour cell growth, NCI panel, 48 h
MOLT-4 leukemia = system: MOLT-4 leukemia
LOX IMVI melanoma = system: LOX IMVI melanoma
HOP-92 NSCLC = system: HOP-92 NSCLC
SW-620 colon = system: SW-620 colon
A549 NSCLC = system: A549 NSCLC
SN12C renal = system: SN12C renal
SK-MEL-2 melanoma = system: SK-MEL-2 melanoma
NCI/ADR-RES ovarian = system: NCI/ADR-RES ovarian
SF-295 CNS = system: SF-295 CNS
RPMI-8226 leukemia = system: RPMI-8226 leukemia
UACC-62 melanoma = system: UACC-62 melanoma
IGROV1 ovarian = system: IGROV1 ovarian
BT-549 breast = system: BT-549 breast
ACHN renal = system: ACHN renal
OVCAR-8 ovarian = system: OVCAR-8 ovarian
NCI-H522 lung = system: NCI-H522 lung
HCC-2998 colon = system: HCC-2998 colon
OVCAR-3 ovarian = system: OVCAR-3 ovarian
CAKI-1 renal = system: CAKI-1 renal
M14 melanoma = system: M14 melanoma
NCI-H460 lung = system: NCI-H460 lung
SK-OV-3 ovarian = system: SK-OV-3 ovarian
NCI-H23 lung = system: NCI-H23 lung
SK-MEL-28 melanoma = system: SK-MEL-28 melanoma
RXF 393 renal = system: RXF 393 renal
PC-3 prostate = system: PC-3 prostate
TK-10 renal = system: TK-10 renal
SF-268 CNS = system: SF-268 CNS
SF-539 CNS = system: SF-539 CNS

For COc1ccc(C(=O)/C=C/c2cccc3ccccc23)cc1S(N)(=O)=O, the GI50 (MOLT-4 leukemia) was 2.3 µM, the TGI (MOLT-4 leukemia) was 6.39 µM and the GI50 (LOX IMVI melanoma) was 1.35 µM. The TGI (LOX IMVI melanoma) was 2.63 µM, the GI50 (HOP-92 NSCLC) was 2.14 µM and the TGI (HOP-92 NSCLC) was 9.53 µM. The GI50 (SW-620 colon) was 1.62 µM, the TGI (SW-620 colon) was 3.46 µM and the GI50 (A549 NSCLC) was 2.66 µM. It also gave a TGI (A549 NSCLC) of 9.65 µM, a GI50 (SN12C renal) of 1.6 µM and a TGI (SN12C renal) of 3.91 µM. The GI50 (SK-MEL-2 melanoma) was 4.99 µM, the TGI (SK-MEL-2 melanoma) was 17.8 µM and the GI50 (NCI/ADR-RES ovarian) was 2.2 µM. For the same compound, the TGI (NCI/ADR-RES ovarian) was 6.4 µM, the GI50 (SF-295 CNS) was 2.38 µM and the TGI (SF-295 CNS) was 7.74 µM. For the same compound, the GI50 (RPMI-8226 leukemia) was 1.59 µM, the TGI (RPMI-8226 leukemia) was 5.34 µM and the GI50 (UACC-62 melanoma) was 1.53 µM. For the same compound, the TGI (UACC-62 melanoma) was 3 µM, the GI50 (IGROV1 ovarian) was 2.3 µM and the TGI (IGROV1 ovarian) was 7.12 µM. For the same compound, the GI50 (BT-549 breast) was 1.77 µM, the TGI (BT-549 breast) was 3.63 µM and the GI50 (ACHN renal) was 1.89 µM. The TGI (ACHN renal) was 3.92 µM, the GI50 (OVCAR-8 ovarian) was 2.39 µM and the TGI (OVCAR-8 ovarian) was 10.1 µM. The GI50 (NCI-H522 lung) was 1.61 µM, the TGI (NCI-H522 lung) was 3.2 µM and the GI50 (HCC-2998 colon) was 1.75 µM. The TGI (HCC-2998 colon) was 3.24 µM, the GI50 (OVCAR-3 ovarian) was 1.8 µM and the TGI (OVCAR-3 ovarian) was 4.38 µM. It also gave a GI50 (CAKI-1 renal) of 2.42 µM, a TGI (CAKI-1 renal) of 10.6 µM and a GI50 (M14 melanoma) of 2.03 µM. The TGI (M14 melanoma) was 5.68 µM, the GI50 (NCI-H460 lung) was 1.79 µM and the TGI (NCI-H460 lung) was 4.16 µM. It also gave a GI50 (SK-OV-3 ovarian) of 3.72 µM, a TGI (SK-OV-3 ovarian) of 15.4 µM and a GI50 (NCI-H23 lung) of 2.21 µM. It also gave a TGI (NCI-H23 lung) of 5.64 µM, a GI50 (SK-MEL-28 melanoma) of 1.85 µM and a TGI (SK-MEL-28 melanoma) of 3.64 µM. The GI50 (RXF 393 renal) was 1.57 µM, the TGI (RXF 393 renal) was 3.24 µM and the GI50 (PC-3 prostate) was 2.31 µM. The TGI (PC-3 prostate) was 6.64 µM, the GI50 (TK-10 renal) was 2.89 µM and the TGI (TK-10 renal) was 10.2 µM. The GI50 (SF-268 CNS) was 3.04 µM, the TGI (SF-268 CNS) was 11.1 µM and the GI50 (SF-539 CNS) was 1.64 µM. The TGI (SF-539 CNS) was 3.06 µM.
